In patent US9376442B2, “Methylpyrrolopyrimidinecarboxamides” (Takeda GmbH, priority 2009, dated 2016):

molecular target: T1, PDE5A1 (Homo sapiens, UniProt O76074); assay: Inhibition of type 5 phosphodiesterase (PDE5) activity, modified SPA test with human platelet lysate; type: biochemical; settings: 0.5 μM cGMP, read-out: PDE5A1 inhibitory values [measured as −log IC50 (mol/l)] (converted)
T1 construct: from tissue; host or cells: human platelets from fresh donor blood (10,000 x g supernatant of sonicated lysate)
Outline: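 Enzyme source is lysate from human platelets (10,000 g supernatant). Compound preincubated 5 min at 37° C in Tris pH 7.4 containing 1 μM motapizone and 10 nM of a PDE2 inhibitor. Reaction started with 0.5 μM cGMP ([3H] tracer) and run 15 min; SPA read-out, IC50 by non-linear regression.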

**Q.** How did the IC50 turn out when `CCOC(=O)N1CCC(NC(=O)c2c(C)[nH]c3c(-c4cc(F)c(OC)cc4OCC4CC4)ncnc23)CC1` [Example E134, Ethyl 4-[({4-[2-(cyclopropylmethoxy)-5-fluoro-4-methoxyphenyl]-6-methyl-5H-pyrrolo[3,2-d]pyrimidin-7-yl}carbonyl)amino]piperidine-1-carboxylate] was run?
**A.** Its IC50 is under 1 nM.

**Q.** Which IC50 does the source give for `COc1cc(OCC2CC2)c(-c2ncnc3c(C(=O)N[C@H]4CC[C@H](NC(C)=O)CC4)c(C)[nH]c23)cc1F` [Example E135, N-(trans-4-Acetamidocyclohexyl)-4-[2-(cyclopropylmethoxy)-5-fluoro-4-methoxyphenyl]-6-methyl-5H-pyrrolo[3,2-d]pyrimidine-7-carboxamide] here?
**A.** The IC50 was under 1 nM.

**Q.** For `CCC(=O)N[C@H]1CC[C@H](NC(=O)c2c(C)[nH]c3c(-c4cc(F)c(OC)cc4OCC4CC4)ncnc23)CC1` [Example E136, 4-[2-(Cyclopropylmethoxy)-5-fluoro-4-methoxyphenyl]-6-methyl-N-[trans-4-(propionylamino)cyclohexyl]-5H-pyrrolo[3,2-d]pyrimidine-7-carboxamide], which IC50 is on record?
**A.** The IC50 was under 1 nM.

**Q.** For `COCC(=O)N[C@H]1CC[C@H](NC(=O)c2c(C)[nH]c3c(-c4cc(F)c(OC)cc4OCC4CC4)ncnc23)CC1` [Example E137, 4-[2-(Cyclopropylmethoxy)-5-fluoro-4-methoxyphenyl]-N-{trans-4-[(methoxyacetyl)amino]cyclohexyl}-6-methyl-5H-pyrrolo[3,2-d]pyrimidine-7-carboxamide], which IC50 is on record?
**A.** The IC50 was under 1 nM.

**Q.** For `COc1cc(OCC2CC2)c(-c2ncnc3c(C(=O)N[C@H]4CC[C@@H](NC(C)=O)CC4)c(C)[nH]c23)cc1F` [Example E138, N-(cis-4-Acetamidocyclohexyl)-4-[2-(cyclopropylmethoxy)-5-fluoro-4-methoxyphenyl]-6-methyl-5H-pyrrolo[3,2-d]pyrimidine-7-carboxamide], which IC50 is on record?
**A.** The IC50 was under 1 nM.

**Q.** How did the IC50 turn out when `CCC(=O)N[C@H]1CC[C@@H](NC(=O)c2c(C)[nH]c3c(-c4cc(F)c(OC)cc4OCC4CC4)ncnc23)CC1` [Example E139, 4-[2-(Cyclopropylmethoxy)-5-fluoro-4-methoxyphenyl]-6-methyl-N-[cis-4-(propionylamino)cyclohexyl]-5H-pyrrolo[3,2-d]pyrimidine-7-carboxamide] was run?
**A.** The IC50 was under 1 nM.

**Q.** Which IC50 does the source give for `COCC(=O)N[C@H]1CC[C@@H](NC(=O)c2c(C)[nH]c3c(-c4cc(F)c(OC)cc4OCC4CC4)ncnc23)CC1` [Example E140, 4-[2-(Cyclopropylmethoxy)-5-fluoro-4-methoxyphenyl]-N-{cis-4-[(methoxyacetyl)amino]cyclohexyl}-6-methyl-5H-pyrrolo[3,2-d]pyrimidine-7-carboxamide] here?
**A.** The IC50 was under 1 nM.

**Q.** Which IC50 does the source give for `CCOC(=O)N[C@H]1CC[C@@H](NC(=O)c2c(C)[nH]c3c(-c4cc(F)c(OC)cc4OCC4CC4)ncnc23)CC1` [Example E141, Ethyl {cis-4-[({4-[2-(cyclopropylmethoxy)-5-fluoro-4-methoxyphenyl]-6-methyl-5H-pyrrolo[3,2-d]pyrimidin-7-yl}carbonyl)amino]cyclohexyl}carbamate] here?
**A.** The IC50 was under 1 nM.

**Q.** For `COCC(=O)N1CCC(NC(=O)c2c(C)[nH]c3c(-c4cc(C(C)C)ccc4OCC4CC4)ncnc23)CC1` [Example E158, 4-[2-(Cyclopropylmethoxy)-5-(propan-2-yl)phenyl]-N-[1-(methoxyacetyl)piperidin-4-yl]-6-methyl-5H-pyrrolo[3,2-d]pyrimidine-7-carboxamide], which IC50 is on record?
**A.** Its IC50 is 1 to 10 nM.

**Q.** `CC(=O)N[C@H]1CC[C@@H](NC(=O)c2c(C)[nH]c3c(-c4cc(C(C)C)ccc4OCC4CC4)ncnc23)CC1` [Example E161, N-[cis-4-(Acetylamino)cyclohexyl]-4-[2-(cyclopropylmethoxy)-5-(propan-2-yl)phenyl]-6-methyl-5H-pyrrolo[3,2-d]pyrimidine-7-carboxamide] was tested. Which IC50 did it give?
**A.** The IC50 was under 1 nM.

**Q.** With `COCC(=O)N[C@H]1CC[C@@H](NC(=O)c2c(C)[nH]c3c(-c4cc(C(C)C)ccc4OCC4CC4)ncnc23)CC1` [Example E162, 4-[2-(Cyclopropylmethoxy)-5-(propan-2-yl)phenyl]-N-{cis-4-[(methoxyacetyl)amino]cyclohexyl}-6-methyl-5H-pyrrolo[3,2-d]pyrimidine-7-carboxamide] as the compound, how does the IC50 read?
**A.** Its IC50 is 1 to 10 nM.

**Q.** Which IC50 does the source give for `CC(=O)c1ccc(OCC2CC2)c(-c2ncnc3c(C(=O)NC4CCN(C(C)=O)CC4)c(C)[nH]c23)c1` [Example E163, 4-[5-Acetyl-2-(cyclopropylmethoxy)phenyl-]-N-(1-acetylpiperidin-4-yl)-6-methyl-5H-pyrrolo[3,2-d]pyrimidine-7-carboxamide] here?
**A.** Its IC50 is under 1 nM.

**Q.** For `CCC(=O)N1CCC(NC(=O)c2c(C)[nH]c3c(-c4cc(C(C)=O)ccc4OCC4CC4)ncnc23)CC1` [Example E164, 4-[5-Acetyl-2-(cyclopropylmethoxy)phenyl]-6-methyl-N-(1-propanoylpiperidin-4-yl)-5H-pyrrolo[3,2-d]pyrimidine-7-carboxamide], which IC50 is on record?
**A.** Its IC50 is under 1 nM.

**Q.** For `COCC(=O)N1CCC(NC(=O)c2c(C)[nH]c3c(-c4cc(C(C)=O)ccc4OCC4CC4)ncnc23)CC1` [Example E165, 4-[5-Acetyl-2-(cyclopropylmethoxy)phenyl]-N-[1-(methoxyacetyl)piperidin-4-yl]-6-methyl-5H-pyrrolo[3,2-d]pyrimidine-7-carboxamide], which IC50 is on record?
**A.** Its IC50 is under 1 nM.

**Q.** Which IC50 does the source give for `CC(=O)N[C@H]1CC[C@H](NC(=O)c2c(C)[nH]c3c(-c4cc(C(C)=O)ccc4OCC4CC4)ncnc23)CC1` [Example E166, N-[trans-4-(Acetylamino)cyclohexyl]-4-[5-acetyl-2-(cyclopropylmethoxy)phenyl]-6-methyl-5H-pyrrolo[3,2-d]pyrimidine-7-carboxamide] here?
**A.** Its IC50 is under 1 nM.

**Q.** With `CCC(=O)N[C@H]1CC[C@H](NC(=O)c2c(C)[nH]c3c(-c4cc(C(C)=O)ccc4OCC4CC4)ncnc23)CC1` [Example E167, 4-[5-Acetyl-2-(cyclopropylmethoxy)phenyl]-6-methyl-N-[trans-4-(propanoylamino)cyclohexyl]-5H-pyrrolo[3,2-d]pyrimidine-7-carboxamide] as the compound, how does the IC50 read?
**A.** Its IC50 is under 1 nM.

**Q.** Which IC50 does the source give for `COCC(=O)N[C@H]1CC[C@H](NC(=O)c2c(C)[nH]c3c(-c4cc(C(C)=O)ccc4OCC4CC4)ncnc23)CC1` [Example E168, 4-[5-Acetyl-2-(cyclopropylmethoxy)phenyl]-N-{trans-4-[(methoxyacetyl)amino]cyclohexyl}-6-methyl-5H-pyrrolo[3,2-d]pyrimidine-7-carboxamide] here?
**A.** The IC50 was under 1 nM.

**Q.** `COc1cc(OCC2CC2)c(-c2nc(C)nc3c(C(=O)NC4CCN(C(C)=O)CC4)c(C)[nH]c23)cc1F` [Example E172, N-(1-Acetylpiperidin-4-yl)-4-[2-(cyclopropylmethoxy)-5-fluoro-4-methoxyphenyl]-2,6-dimethyl-5H-pyrrolo[3,2-d]pyrimidine-7-carboxamide] was tested. Which IC50 did it give?
**A.** Its IC50 is under 1 nM.

**Q.** `COc1cc(-c2nc(C)nc3c(C(=O)NC4CCN(C(C)=O)CC4)c(C)[nH]c23)c(OCC2CC2)cc1F` [Example E173, N-(1-Acetylpiperidin-4-yl)-4-[2-(cyclopropylmethoxy)-4-fluoro-5-methoxyphenyl]-2,6-dimethyl-5H-pyrrolo[3,2-d]pyrimidine-7-carboxamide] was tested. Which IC50 did it give?
**A.** The IC50 was under 1 nM.

**Q.** For `CCC(=O)N1CCC(NC(=O)c2c(C)[nH]c3c(-c4cc(OC)c(F)cc4OCC4CC4)nc(C)nc23)CC1` [Example E174, 4-[2-(Cyclopropylmethoxy)-4-fluoro-5-methoxyphenyl]-2,6-dimethyl-N-(1-propanoylpiperidin-4-yl)-5H-pyrrolo[3,2-d]pyrimidine-7-carboxamide], which IC50 is on record?
**A.** The IC50 was under 1 nM.

**Q.** `COCC(=O)N1CCC(NC(=O)c2c(C)[nH]c3c(-c4cc(OC)c(F)cc4OCC4CC4)nc(C)nc23)CC1` [Example E175, 4-[2-(Cyclopropylmethoxy)-4-fluoro-5-methoxyphenyl]-N-[1-(methoxyacetyl)piperidin-4-yl]-2,6-dimethyl-5H-pyrrolo[3,2-d]pyrimidine-7-carboxamide] was tested. Which IC50 did it give?
**A.** Its IC50 is under 1 nM.

**Q.** For `COc1cc(-c2ncnc3c(C(=O)N[C@@H]4CCN(C(C)=O)C4)c(C)[nH]c23)c(OCC2CC2)cc1F` [Example E179, N-[(3R)-1-Acetylpyrrolidin-3-yl]-4-[2-(cyclopropylmethoxy)-4-fluoro-5-methoxyphenyl]-6-methyl-5H-pyrrolo[3,2-d]pyrimidine-7-carboxamide], which IC50 is on record?
**A.** The IC50 was under 1 nM.

**Q.** Which IC50 does the source give for `CCC(=O)N1CC[C@@H](NC(=O)c2c(C)[nH]c3c(-c4cc(OC)c(F)cc4OCC4CC4)ncnc23)C1` [Example E180, 4-[2-(Cyclopropylmethoxy)-4-fluoro-5-methoxyphenyl]-6-methyl-N-[(3R)-1-propionylpyrrolidin-3-yl]-5H-pyrrolo[3,2-d]pyrimidine-7-carboxamide] here?
**A.** Its IC50 is under 1 nM.

**Q.** `COCC(=O)N1CC[C@@H](NC(=O)c2c(C)[nH]c3c(-c4cc(OC)c(F)cc4OCC4CC4)ncnc23)C1` [Example E181, 4-[2-(Cyclopropylmethoxy)-4-fluoro-5-methoxyphenyl]-N-[(3R)-1-(methoxyacetyl)pyrrolidin-3-yl]-6-methyl-5H-pyrrolo[3,2-d]pyrimidine-7-carboxamide] was tested. Which IC50 did it give?
**A.** Its IC50 is under 1 nM.

**Q.** `CCOC(=O)N1CC[C@@H](NC(=O)c2c(C)[nH]c3c(-c4cc(OC)c(F)cc4OCC4CC4)ncnc23)C1` [Example E182, Ethyl (3R)-3-[({4-[2-(cyclopropylmethoxy)-4-fluoro-5-methoxyphenyl]-6-methyl-5H-pyrrolo[3,2-d]pyrimidin-7-yl}carbonyl)amino]pyrrolidine-1-carboxylate] was tested. Which IC50 did it give?
**A.** Its IC50 is under 1 nM.

**Q.** `COc1cc(OCC2CC2)c(-c2ncnc3c(C(=O)N[C@@H]4CCN(C(C)=O)C4)c(C)[nH]c23)cc1F` [Example E186, N-[(3R)-1-Acetylpyrrolidin-3-yl]-4-[2-(cyclopropylmethoxy)-5-fluoro-4-methoxyphenyl]-6-methyl-5H-pyrrolo[3,2-d]pyrimidine-7-carboxamide] was tested. Which IC50 did it give?
**A.** Its IC50 is under 1 nM.

**Q.** With `CCC(=O)N1CC[C@@H](NC(=O)c2c(C)[nH]c3c(-c4cc(F)c(OC)cc4OCC4CC4)ncnc23)C1` [Example E187, 4-[2-(Cyclopropylmethoxy)-5-fluoro-4-methoxyphenyl]-6-methyl-N-[(3R)-1-propionylpyrrolidin-3-yl]-5H-pyrrolo[3,2-d]pyrimidine-7-carboxamide] as the compound, how does the IC50 read?
**A.** The IC50 was under 1 nM.
